# Test results taken from patent US8759363B2, “Quinazoline-based T cell proliferation inhibitors” (Yissum Research Development Company of the Hebrew …, priority 2010, dated 2014).
# Assays:
# [1] = test system: Jurkat cells; assay: Jurkat cell proliferation, BrdU incorporation; type: cell-based, human; details: for IC50: Homo sapiens, Jurkat, BrdU uptake, nM ± SD, read-out: IC50 Jurkat cells proliferation inhibition; for fold increase in the IC50 of Jurkat cell proliferation compared with compound 2: relative to compound 2
# Procedure: (§1) Cells were depleted of fetal calf serum (FCS) for 12 hours. They were then stimulated to proliferate by addition of ConA (10 μg/ml) for PBMC from healthy individuals and for Jurkat cells, FCS (10%) for HEK293 and A375 cells, PDGF (30 ng/ml) for NIH 3T3 cells, and EGF (30 ng/ml) for MDA-MB-231, Cells (1×10^5) were cultured in 96-well plates for 3 days in the presence or absence of inhibitors at the concentrations specified in the text. Each condition was tested in duplicate wells.
# (§2) Proliferation was assessed by BrdU incorporation using a colorimetric ELISA kit (Roche, Germany). Subsequent to labeling with 10 μM BrdU, DNA was denatured and the cells were incubated with anti-BrdU-POD, prior to the addition of colorimetric substrate (TMB). The reaction product was quantified by measuring absorbance at 450 nm in an ELISA plate reader (ELx800 BIO-TEK Instruments Inc.).
# (§3) Since we were not prejudiced towards any specific protein kinase, we used a biological assay for T cell proliferation. We tested our libraries for inhibition of proliferation of PBMC and Jurkat cells (Table 3). Cell proliferation was measured by BrdU uptake. […] PBMC cells were stimulated by a non-specific T cell mitogen, Concanavalin A (ConA). All of the compounds that were tested inhibited proliferation at micromolar or sub-micromolar concentrations.
# [2] = test system: PBMC; assay: PBMC proliferation, BrdU incorporation; type: cell-based, human; details: for IC50: Homo sapiens, ConA-stimulated PBMC, BrdU uptake, nM ± SD, read-out: IC50 PBMC proliferation inhibition; for fold increase in the IC50 of PBMC proliferation compared with compound 2: relative to compound 2
# Procedure: Blood samples were taken from healthy donors and loaded on a Ficoll density gradient to purify the PBMC population. T cells were purified by human anti-CD3 using an autoMACS instrument (Miltenyi Biotec, Bergisch-Gladbach, Germany), according to the manufacturer's instructions. The identity of T cells was confirmed by flow cytometry, as they stained positive for CD3. Cells were stimulated with ConA (10 μg/ml), ODN2006 (0.5 μg/ml; Enzo Life Sciences), or LPS (50 μg/ml; Sigma-Aldrich, Steinheim, Germany), for 72 h in the presence of the inhibitor, and their proliferation was measured in the BrdU incorporation assay as will be later described.
# as §1, §2, §3
Compound,IC50 [1] [nM],melting point [°C],fold increase in the IC50 of Jurkat cell proliferation compared with compound 2 [1] [fold],IC50 [2] [nM],fold increase in the IC50 of PBMC proliferation compared with compound 2 [2] [fold]
"COc1cc(-c2nc(NCc3ccc(F)c(F)c3)c3ccccc3n2)cc(OC)c1OC [Compound 12, N-(3,4-difluorobenzyl)-2-(3,4,5-trimethoxyphenyl)quinazolin-4-amine]",730 ± 0.39,> 250,–,200,–
"Nc1ccc(CNc2nc(-c3cc(O)c(O)c(O)c3)nc3ccccc23)cc1 [Compound 30, 5-(4-(4-aminobenzylamino)quinazolin-2-yl)benzene-1,2,3-triol]",670 ± 0.22,> 250,–,570 ± 0.24,–
"COc1cc(-c2nc(Nc3ccc4[nH]ncc4c3)c3ccccc3n2)cc(OC)c1OC [Compound 16, N-(1H-indazol-5-yl)-2-(3,4,5-trimethoxyphenyl)quinazolin-4-amine]",700 ± 0.35,> 250,–,600 ± 0.28,–
"COc1cc(-c2nc(Nc3ccc(Cl)cc3)c3ccccc3n2)cc(OC)c1OC [Compound 8, N-(4-chlorophenyl)-2-(3,4,5-trimethoxyphenyl)quinazolin-4-amine]",530 ± 0.32,> 250,–,300 ± 0.05,–
"CCCCCCCCOc1ccc(Nc2nc(-c3cc(O)c(O)c(O)c3)nc3ccccc23)cc1 [Compound 25, 5-(4-(4-(octyloxy)phenylamino)quinazolin-2-yl)benzene-1,2,3-triol]",4250 ± 1.3,> 250,–,4530 ± 0.31,–
"COc1cc(-c2nc(NCc3ccc(N)cc3)c3ccccc3n2)cc(OC)c1OC [Compound 11, N-(4-aminobenzyl)-2-(3,4,5-trimethoxyphenyl)quinazolin-4-amine]",480 ± 0.18,> 250,–,380 ± 0.04,–
"CCCCCCCCOc1ccc(Nc2nc(-c3cc(OC)c(OC)c(OC)c3)nc3ccccc23)cc1 [Compound 6, N-(4-(octyloxy)phenyl)-2-(3,4,5-trimethoxyphenyl)quinazolin-4-amine]",850 ± 0.07,–,–,2400 ± 2.26,–
"COc1cc(-c2nc(Nc3ccc(O)cc3)c3ccccc3n2)cc(OC)c1OC [Compound 4, 4-(2-(3,4,5-trimethoxyphenyl)quinazolin-4-ylamino)phenol]",230 ± 0.04,> 250,–,300 ± 0.14,–
"COc1ccc(Nc2nc(-c3cc(O)c(O)c(O)c3)nc3ccccc23)cc1 [Compound 24, 5-(4-(4-methoxyphenylamino)quinazolin-2-yl)benzene-1,2,3-triol]",550 ± 0.21,> 250,–,500 ± 0.14,–
"COc1cc(-c2nc(Nc3ccc4c(c3)OCO4)c3ccccc3n2)cc(OC)c1OC [Compound 18, N-(benzo[d][1,3]dioxol-5-yl)-2-(3,4,5-trimethoxyphenyl) quinazolin-4-amine]",600,> 250,–,380 ± 0.04,–
"Oc1cc(-c2nc(NCCc3c[nH]c4ccccc34)c3ccccc3n2)cc(O)c1O [Compound 36, 5-(4-(2-(1H-indol-3-yl)ethylamino)quinazolin-2-yl)benzene-1,2,3-triol]",1970 ± 0.74,> 250,–,1240 ± 0.74,–
"Oc1cc(-c2nc(Nc3ccc(Cl)cc3)c3ccccc3n2)cc(O)c1O [Compound 27, 5-(4-(4-chlorophenylamino)quinazolin-2-yl)benzene-1,2,3-triol]",4250 ± 5.3,> 250,–,550 ± 0.21,–
"Oc1cc(-c2nc(Nc3ccc(OC(F)(F)F)cc3)c3ccccc3n2)cc(O)c1O [Compound 26, 5-(4-(4-(trifluoromethoxy)phenylamino)quinazolin-2-yl)benzene-1,2,3-triol]",3240 ± 0.31,> 250,–,2780 ± 0.26,–
"Oc1ccc(Nc2nc(-c3cc(O)c(O)c(O)c3)nc3ccccc23)cc1 [Compound 23, 5-(4-(4-hydroxyphenylamino)quinazolin-2-yl)benzene-1,2,3-triol]",1120 ± 0.28,–,–,970 ± 0.84,–
"Cc1ccc(Nc2nc(-c3cc(O)c(O)c(O)c3)nc3ccccc23)c(C)c1 [Compound 22, 5-(4-(2,4-dimethylphenylamino)quinazolin-2-yl)benzene-1,2,3-triol]",3700 ± 4.67,> 250,–,730 ± 0.04,–
"Oc1cc(-c2nc(NCc3ccc(Cl)c(Cl)c3)c3ccccc3n2)cc(O)c1O [Compound 32, 5-(4-(3,4-dichlorobenzylamino)quinazolin-2-yl)benzene-1,2,3-triol]",3640 ± 0.54,> 250,–,2600 ± 0.24,–
"COc1cc(-c2nc(Nc3ccc(OC(F)(F)F)cc3)c3ccccc3n2)cc(OC)c1OC [Compound 7, N-(4-(trifluoromethoxy)phenyl)-2-(3,4,5-trimethoxyphenyl) quinazolin-4-amine]",180 ± 0.11,> 250,6,400,5
"Oc1cc(-c2nc(Nc3ccc4nc[nH]c4c3)c3ccccc3n2)cc(O)c1O [Compound 38, 5-(4-(3H-benzo[d]imidazol-5-ylamino)quinazolin-2-yl)benzene-1,2,3-triol]",2570 ± 0.82,> 250,–,4340 ± 0.74,–
"COc1ccc(CNc2nc(-c3cc(O)c(O)c(O)c3)nc3ccccc23)cc1 [Compound 33, 5-(4-(4-methoxybenzylamino)quinazolin-2-yl)benzene-1,2,3-triol]",5430 ± 0.76,> 250,–,3260 ± 0.49,–
"Oc1cc(-c2nc(Nc3ccc4cn[nH]c4c3)c3ccccc3n2)cc(O)c1O [Compound 34, 5-(4-(1H-indazol-6-ylamino)quinazolin-2-yl)benzene-1,2,3-triol]",690 ± 0.3,–,–,500 ± 0.14,–

# More lines, in order of falling IC50 [1], values ahead:
IC50 [1] [nM],melting point [°C],fold increase in the IC50 of Jurkat cell proliferation compared with compound 2 [1] [fold],Compound,IC50 [2] [nM],fold increase in the IC50 of PBMC proliferation compared with compound 2 [2] [fold]
2600 ± 3.39,> 250,10,"COc1cc(-c2nc(Nc3ccc(C)cc3C)c3ccccc3n2)cc(OC)c1OC [Compound 3, N-(2,4-dimethylphenyl)-2-(3,4,5-trimethoxyphenyl)quinazolin-4-amine]",750 ± 0.05,10
1500 ± 0.71,> 250,–,"COc1cc(-c2nc(Nc3ccc4nc[nH]c4c3)c3ccccc3n2)cc(OC)c1OC [Compound 19, N-(3H-benzoimidazol-5-yl)-2-(3,4,5-trimethoxyphenyl)quinazolin-4-amine]",430 ± 0.11,–
1100 ± 0.14,–,–,"COc1ccc(CNc2nc(-c3cc(OC)c(OC)c(OC)c3)nc3ccccc23)cc1 [Compound 14, N-(4-methoxybenzyl)-2-(3,4,5-trimethoxyphenyl)quinazolin-4-amine]",500 ± 0.14,–
730 ± 0.39,–,–,"COc1cc(-c2nc(NCc3ccc(Cl)c(Cl)c3)c3ccccc3n2)cc(OC)c1OC [Compound 13, N-(3,4-dichlorobenzyl)-2-(3,4,5-trimethoxyphenyl)quinazolin-4-amine]",300 ± 0.14,–
700 ± 0.35,> 250,–,"COc1cc(-c2nc(NCCc3c[nH]c4ccccc34)c3ccccc3n2)cc(OC)c1OC [Compound 17, N-(2-(1H-indol-3-yl)ethyl)-2-(3,4,5-trimethoxyphenyl)quinazolin-4-amine]",750 ± 0.21,–
650 ± 0.21,> 250,–,"OCc1ccccc1Nc1nc(-c2cc(O)c(O)c(O)c2)nc2ccccc12 [Compound 28, 5-(4-(2-(hydroxymethyl)phenylamino)quinazolin-2-yl)benzene-1,2,3-triol]",900 ± 0.14,–
600 ± 0.14,> 250,–,"COc1cc(-c2nc(Nc3ccc4cn[nH]c4c3)c3ccccc3n2)cc(OC)c1OC [Compound 15, N-(1H-indazol-6-yl)-2-(3,4,5-trimethoxyphenyl) quinazolin-4-amine]",450 ± 0.07,–
600 ± 0.14,> 250,–,"COc1cc(-c2nc(NCc3ccccc3)c3ccccc3n2)cc(OC)c1OC [Compound 10, N-benzyl-2-(3,4,5-trimethoxyphenyl)quinazolin-4-amine]",3250 ± 2.47,–
580 ± 0.18,> 250,–,"COc1cc(-c2nc(Nc3ccccc3CO)c3ccccc3n2)cc(OC)c1OC [Compound 9, (2-(2-(3,4,5-trimethoxyphenyl)quinazolin-4-ylamino)phenyl)methanol]",850 ± 0.07,–
380 ± 0.18,> 250,10,"COc1cc(-c2nc(Nc3ccccc3)c3ccccc3n2)cc(OC)c1OC [Compound 1, N-phenyl-2-(3,4,5-trimethoxyphenyl)quinazolin-4-amine]",280 ± 0.04,3
